Results published in ChEMBL document CHEMBL5120867, “Hernandezine Regulates Proliferation and Autophagy-Induced Apoptosis in Melanoma Cells” (J Nat Prod, 2022).
Active and inactive are the calls of the source. No cut-off for these calls is given here.

How the values were obtained:
[1] = test system: A-375; assay: Induction of apoptosis in human A-375 cells assessed as chromatin condensation at 6 to 8 uM incubated for 24 hrs by Hoechst 33258 staining based fluorescence microscopy; type: functional, cell-based; conditions: dose 6-8 µM
[2] = test system: B16; assay: Induction of cell cycle arrest in mouse B16 cells assessed as accumulation at G2/M phase at 6 uM incubated for 24 hrs by PI staining based flow cytometry analysis (reference value: 4.70 %); type: functional
[3] = test system: A-375; assay: Induction of cell cycle arrest in human A-375 cells assessed as accumulation at S phase at 6 uM incubated for 24 hrs by PI staining based flow cytometry analysis (reference value: 28.83 %); type: functional
[4] = test system: B16; assay: Induction of apoptosis in mouse B16 cells assessed as late apoptotic cells preincubated for 2 hrs with 3-MA followed by compound addition and measured after 24 hrs by Annexin-V-FITC/PI-staining based flow cytometry (reference value: 5.7 %); type: functional
[5] = test system: B16; assay: Induction of cell cycle arrest in mouse B16 cells assessed as accumulation at G0/G1 phase at 6 uM incubated for 24 hrs by PI staining based flow cytometry analysis (reference value: 61.83 %); type: functional
[6] = test system: B16; assay: Induction of cell cycle arrest in mouse B16 cells assessed as accumulation at G2/M phase incubated for 24 hrs by PI staining based flow cytometry analysis (reference value: 0.88 %); type: functional
[7] = test system: A-375; assay: Induction of apoptosis in human A-375 cells assessed as late apoptotic cells at 7 uM after 24 hrs by Annexin-V-FITC/PI-staining based flow cytometry (reference value: 5.7 %); type: functional
[8] = test system: A-375; assay: Induction of cell cycle arrest in human A-375 cells assessed as accumulation at G0/G1 phase incubated for 24 hrs by PI staining based flow cytometry analysis (reference value: 56.69 %); type: functional
[9] = test system: B16; assay: Inhibition of autophagy in mouse B16 cells harbouring mCherry-EGFP-LC3 assessed as increase in proportion of autolysosomes at 6 uM for 8 to 24 hrs by laser scanning confocal microscopic analysis; type: functional, cell-based; conditions: time 8-24 hrs
[10] = test system: A-375; assay: Induction of cell cycle arrest in human A-375 cells assessed as accumulation at G0/G1 phase at 6 uM incubated for 24 hrs by PI staining based flow cytometry analysis (reference value: 69.68 %); type: functional
[11] = test system: A-375; assay: Induction of apoptosis in human A-375 cells assessed as increase in cleaved caspase 9 expression at 6 to 8 uM incubated for 24 hrs by Western blot analysis; type: functional, cell-based; conditions: dose 6-8 µM
[12] = test system: B16; assay: Induction of apoptosis in mouse B16 cells assessed as early apoptotic cells at 5 uM measured after 24 hrs by Annexin-V-FITC/PI-staining based flow cytometry (reference value: 0.5 %); type: functional
[13] = test system: A-375; assay: Induction of apoptosis in human A-375 cells assessed as late apoptotic cells after 24 hrs by Annexin-V-FITC/PI-staining based flow cytometry (reference value: 5.7 %); type: functional
[14] = test system: A-375; assay: Induction of apoptosis in human A-375 cells assessed as early apoptotic cells at 7 uM after 24 hrs by Annexin-V-FITC/PI-staining based flow cytometry (reference value: 1.4 %); type: functional
[15] = test system: B16; assay: Induction of apoptosis in mouse B16 cells assessed as late apoptotic cells measured after 24 hrs by Annexin-V-FITC/PI-staining based flow cytometry (reference value: 5.7 %); type: functional
[16] = test system: B16; assay: Induction of apoptosis in mouse B16 cells assessed as early apoptotic cells preincubated for 2 hrs with 3-MA followed by compound addition and measured after 24 hrs by Annexin-V-FITC/PI-staining based flow cytometry (reference value: 0.9 %); type: functional
[17] = test system: B16; assay: Induction of cell cycle arrest in mouse B16 cells assessed as accumulation at S phase incubated for 24 hrs by PI staining based flow cytometry analysis (reference value: 42.53 %); type: functional
[18] = test system: A-375; assay: Cytotoxicity against human A-375 cells assessed as change in cell morphology with loss of […] contacts at 6 to 8 uM incubated for 24 hrs by […] phase contrast microscope analysis; type: functional; conditions: dose 6-8 µM
[19] = test system: A-375; assay: Cytotoxicity against human A-375 cells assessed as reduction in cell viability measured after 24 hrs by MTT assay; type: functional, cell-based; conditions: A-375, 24 h
[20] = test system: B16; assay: Induction of apoptosis in mouse B16 cells assessed as early apoptotic cells measured after 24 hrs by Annexin-V-FITC/PI-staining based flow cytometry (reference value: 0.9 %); type: functional
[21] = test system: B16; assay: Induction of apoptosis in mouse B16 cells assessed as early apoptotic cells at 7 uM measured after 24 hrs by Annexin-V-FITC/PI-staining based flow cytometry (reference value: 0.5 %); type: functional
[22] = test system: A-375; assay: Induction of apoptosis in human A-375 cells assessed as late apoptotic cells preincubated for 2 hrs with […] followed by compound addition and measured after 24 hrs by Annexin-V-FITC/PI-staining based flow cytometry (reference value: 5.7 %); type: functional
[23] = test system: B16; assay: Induction of cell cycle arrest in mouse B16 cells assessed as accumulation at G2/M phase at 7 uM incubated for 24 hrs by PI staining based flow cytometry analysis (reference value: 4.70 %); type: functional
[24] = test system: A-375; assay: Induction of apoptosis in human A-375 cells assessed as early apoptotic cells at 6 uM after 24 hrs by Annexin-V-FITC/PI-staining based flow cytometry (reference value: 1.4 %); type: functional
[25] = test system: B16; assay: Inhibition of colony formation in mouse B16 cells assessed as reduction in number of colonies at 5 to 7 uM incubated for 24 hrs followed by replacement with fresh medium and measured after 14 days by crystal violet staining based analysis; type: functional, cell-based; conditions: dose 5-7 µM
[26] = test system: A-375; assay: Induction of cell cycle arrest in human A-375 cells assessed as accumulation at G0/G1 phase incubated for 24 hrs in presence of AG490 by PI staining based flow cytometry analysis (reference value: 56.69 %); type: functional
[27] = test system: A-375; assay: Induction of autophagy in human A-375 cells assessed as increase in phosphorylated AMPK at 7 uM incubated for 6 to 24 hrs by Western blotting analysis; type: functional, cell-based; conditions: time 6-24 hrs
[28] = test system: B16; assay: Induction of apoptosis in mouse B16 cells assessed as cytoplasmic shrinkage at 5 to 7 uM incubated for 24 hrs by Hoechst 33258 staining based fluorescence microscopy; type: functional, cell-based; conditions: dose 5-7 µM
[29] = test system: B16; assay: Induction of apoptosis in mouse B16 cells assessed as late apoptotic cells at 7 uM measured after 24 hrs by Annexin-V-FITC/PI-staining based flow cytometry (reference value: 4.4 %); type: functional
[30] = test system: A-375; assay: Upregulation of p53 accumulation in human A-375 cells at 6 to 8 uM measured after 12 to 24 hrs by western blot assay; type: functional, cell-based; conditions: dose 6-8 µM, time 12-24 hrs
[31] = test system: A-375; assay: Induction of cell cycle arrest in human A-375 cells assessed as accumulation at G0/G1 phase at 7 uM incubated for 24 hrs by PI staining based flow cytometry analysis (reference value: 69.68 %); type: functional
[32] = test system: A-375; assay: Induction of apoptosis in human A-375 cells assessed as early apoptotic cells preincubated for 2 hrs with […] followed by compound addition and measured after 24 hrs by Annexin-V-FITC/PI-staining based flow cytometry (reference value: 3.1 %); type: functional
[33] = test system: A549; assay: Cytotoxicity against human A549 cells assessed as reduction in cell viability by MTT assay; type: functional, cell-based
[34] = test system: A-375; assay: Induction of apoptosis in human A-375 cells assessed as cytoplasmic shrinkage at 6 to 8 uM incubated for 24 hrs by Hoechst 33258 staining based fluorescence microscopy; type: functional, cell-based; conditions: dose 6-8 µM

COc1ccc2cc1Oc1ccc(cc1)C[C@H]1c3cc(c(OC)cc3CCN1C)Oc1c(OC)c(OC)c(OC)c3c1[C@H](C2)N(C)CC3 [HERNANDEZINE]
Activity [1]: Active
Activity [2]: 3.27%
Activity [3]: 22.28%
Activity [4]: 14.5%
Activity [5]: 72.89%
Activity [6]: 8.78%
Activity [7]: 47%
Activity [8]: 63.87%
inhibition [9]: Active
Activity [10]: 76.28%
Activity [11]: Active
Activity [12]: 4.6%
Activity [13]: 48.1%
Activity [14]: 9.4%
Activity [15]: 20.6%
Activity [16]: 14.1%
Activity [17]: 12.63%
Activity [18]: Active
IC50 [19]: 7.2 µM
Activity [20]: 25.6%
Activity [21]: 16.4%
Activity [22]: 23.9%
Activity [23]: 2.98%
Activity [24]: 4.1%
inhibition [25]: Active
Activity [26]: 70.87%
Activity [27]: Active
Activity [28]: Active
Activity [29]: 25.8%
Activity [30]: Active
Activity [31]: 76.87%
Activity [32]: 34.8%
IC50 [33]: 7.59 µM
Activity [34]: Active
